Molecular target: T1, hFXR (Homo sapiens, UniProt Q96RI1)
T1 construct: expressed in transfected cells; host or cells: CV-1 cells
T1 sequence (Q96RI1 1-486): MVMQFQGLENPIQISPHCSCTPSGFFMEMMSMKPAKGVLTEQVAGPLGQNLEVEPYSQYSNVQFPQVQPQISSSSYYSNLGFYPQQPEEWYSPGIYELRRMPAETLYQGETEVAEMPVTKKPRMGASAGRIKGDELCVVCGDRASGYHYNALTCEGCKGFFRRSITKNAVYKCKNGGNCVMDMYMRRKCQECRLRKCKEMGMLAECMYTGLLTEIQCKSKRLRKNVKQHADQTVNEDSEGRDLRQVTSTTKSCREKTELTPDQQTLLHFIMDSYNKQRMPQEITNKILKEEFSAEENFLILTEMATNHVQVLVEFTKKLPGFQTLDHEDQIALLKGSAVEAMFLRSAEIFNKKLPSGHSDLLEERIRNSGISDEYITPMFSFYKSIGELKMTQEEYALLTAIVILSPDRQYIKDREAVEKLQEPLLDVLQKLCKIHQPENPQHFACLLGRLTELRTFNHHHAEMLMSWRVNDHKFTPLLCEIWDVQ
T1 sequence (P19793 1-462 partner): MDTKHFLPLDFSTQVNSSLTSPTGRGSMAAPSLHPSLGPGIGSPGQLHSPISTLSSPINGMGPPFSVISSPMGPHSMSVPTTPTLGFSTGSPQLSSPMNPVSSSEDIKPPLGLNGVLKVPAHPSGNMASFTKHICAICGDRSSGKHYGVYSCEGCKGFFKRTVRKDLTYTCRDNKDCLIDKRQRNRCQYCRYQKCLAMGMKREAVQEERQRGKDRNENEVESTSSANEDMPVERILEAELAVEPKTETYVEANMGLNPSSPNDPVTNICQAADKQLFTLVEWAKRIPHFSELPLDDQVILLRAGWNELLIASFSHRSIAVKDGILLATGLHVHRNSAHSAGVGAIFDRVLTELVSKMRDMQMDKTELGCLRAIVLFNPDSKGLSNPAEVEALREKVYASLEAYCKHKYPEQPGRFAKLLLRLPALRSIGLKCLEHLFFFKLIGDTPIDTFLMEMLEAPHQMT
Assay: In Vitro FXR Assay (TK): TK-ECRE-luc reporter in transfected CV-1 cells
Assay type: cell-based
Settings: 18 hrs incubation, luminescence
Experimental: Example B-1: In Vitro FXR Assay (TK)
CV-1 cells were seeded at a density of 2,000,000 cells in a T175 flask with DMEM+10% charcoal double-stripped FBS and incubated at 37° C. in 5% CO2 for 18 h (O/N).
After 18 h of incubation, the medium in the T175 flask was changed with fresh DMEM+10% charcoal super-stripped serum. In a polypropylene tube, 2500 μL OptiMEM (Life Technologies, Cat #31985-062) was combined with expression plasmids for hFXR, hRXR, TK-ECRE-luc and pCMX-YFP. The tube was then briefly vortexed and incubated at room temperature for 5 minutes. Transfection reagent (X-tremeGENE HP from Roche, Cat #06 366 236 001) was added to the OptiMEM/plasmid mixture vortexed and incubated at room temperature for 20 minutes. Following incubation, the transfection reagent/DNA mixture complex was added to cells in the T175 flask and the cells were incubated at 37° C. in 5% CO2 for 18 h (O/N).
Compounds were serially diluted in DMSO and added to transfected CV-1 cells. The cells were then incubated for 18 hrs. The next day cells were lysed and examined for luminescence.

SMILES	EC50
COc1ccc([C@H]2CC[C@H](CN(c3cc(-c4coc(C5CC5)n4)ccn3)C(=O)[C@H]3CC[C@H](OC(=O)N4CCN(C)CC4)CC3)CC2)cc1Cl [Compound 2.07, trans-4-(((trans-4-(3-Chloro-4-methoxyphenyl)cyclohexyl)methyl)(4-(2-cyclopropyloxazol-4-yl)pyridin-2-yl)carbamoyl)cyclohexyl 4-methylpiperazine-1-carboxylate]	≤ 50 nM
COc1ccc([C@H]2CC[C@H](CN(c3cc(-c4cnc(C5CC5)s4)ccn3)C(=O)[C@H]3CC[C@H](OC(=O)N4CCN(C)CC4)CC3)CC2)cc1Cl [Compound 2.08, trans-4-(((trans-4-(3-Chloro-4-methoxyphenyl)cyclohexyl)methyl)(4-(2-cyclopropylthiazol-5-yl)pyridin-2-yl)carbamoyl)cyclohexyl 4-methylpiperazine-1-carboxylate]	≤ 50 nM
COc1ccc([C@H]2CC[C@H](CN(c3cc(-c4cc(C5CC5)on4)ccn3)C(=O)[C@H]3CC[C@H](OC(=O)N4CC(O)C4)CC3)CC2)cc1C [Compound 2.09, trans-4-((4-(5-Cyclopropylisoxazol-3-yl)pyridin-2-yl)((trans-4-(4-methoxy-3-methylphenyl)cyclohexyl)methyl)carbamoyl)cyclohexyl 3-hydroxyazetidine-1-carboxylate]	≤ 50 nM
COc1ccc([C@H]2CC[C@H](CN(c3cc(-c4cnc(C(C)C)s4)ccn3)C(=O)[C@H]3CC[C@H](OC(=O)NCC(C)(C)O)CC3)CC2)cc1C [Compound 2.10, trans-4-((4-(2-Isopropylthiazol-5-yl)pyridin-2-yl)((trans-4-(4-methoxy-3-methylphenyl)cyclohexyl)methyl)carbamoyl) cyclohexyl(2-hydroxy-2-methylpropyl)carbamate]	≤ 50 nM
COc1ccc([C@H]2CC[C@H](CN(c3cc(-c4cnn(C(C)C)c4)ccn3)C(=O)[C@H]3CC[C@H](OC(=O)N4CC(OCCO)C4)CC3)CC2)cc1C [Compound 2.11, trans-4-((4-(1-Isopropyl-1H-pyrazol-4-yl)pyridin-2-yl)(((trans)-4-(4-methoxy-3-methylphenyl)cyclohexyl)methyl)carbamoyl) cyclohexyl3-(2-hydroxyethoxy)azetidine-1-carboxylate]	≤ 50 nM
COc1ccc([C@H]2CC[C@H](CN(c3cc(-c4cnn(C(C)C)c4)ccn3)C(=O)[C@H]3CC[C@H](OC(=O)N4CC(S(C)(=O)=O)C4)CC3)CC2)cc1C [Compound 2.12, trans-4-((4-(1-Isopropyl-1H-pyrazol-4-yl)pyridin-2-yl)(((trans)-4-(4-methoxy-3-methylphenyl)cyclohexyl)methyl)carbamoyl) cyclohexyl 3-(methylsulfonyl)azetidine-1-carboxylate]	≤ 50 nM
COc1ccc([C@H]2CC[C@H](CN(c3cc(-c4cnn(C(C)C)c4)ccn3)C(=O)[C@H]3CC[C@H](OC(=O)N4CC(N(C)C)C4)CC3)CC2)cc1C [Compound 2.13, trans-4-((4-(1-Isopropyl-1H-pyrazol-4-yl)pyridin-2-yl)(((trans)-4-(4-methoxy-3-methylphenyl)cyclohexyl)methyl)carbamoyl) cyclohexyl 3-(dimethylamino)azetidine-1-carboxylate]	≤ 50 nM
COc1ccc([C@H]2CC[C@H](CN(c3cc(-c4cnn(C(C)C)c4)ccn3)C(=O)[C@H]3CC[C@H](OC(=O)N4CCN(C)CC4)CC3)CC2)cc1C [Compound 2.14, trans-4-((4-(1-Isopropyl-1H-pyrazol-4-yl)pyridin-2-yl)(((trans)-4-(4-methoxy-3-methylphenyl)cyclohexyl)methyl)carbamoyl) cyclohexyl4-methylpiperazine-1-carboxylate]	≤ 50 nM
COc1ccc([C@H]2CC[C@H](CN(c3cc(-c4cnn(C(C)C)c4)ccn3)C(=O)[C@H]3CC[C@H](OC(=O)N4CCNCC4)CC3)CC2)cc1C [Compound 2.15, trans-4-((4-(1-Isopropyl-1H-pyrazol-4-yl)pyridin-2-yl) ((trans-4-(4-methoxy-3-methylphenyl)cyclohexyl)methyl)carbamoyl) cyclohexyl piperazine-1-carboxylate]	50 to 1000 nM
COc1ccc([C@H]2CC[C@H](CN(c3cc(-c4cnn(C(C)C)c4)ccn3)C(=O)[C@H]3CC[C@H](OC(=O)N4CCOCC4)CC3)CC2)cc1C [Compound 2.16, trans-4-((4-(1-Isopropyl-1H-pyrazol-4-yl)pyridin-2-yl)(((trans)-4-(4-methoxy-3-methylphenyl)cyclohexyl)methyl)carbamoyl)cyclohexyl morpholine-4-carboxylate]	≤ 50 nM

Continued, values first:

EC50	SMILES
≤ 50 nM	COc1ccc([C@H]2CC[C@H](CN(c3cc(-c4cnn(C(C)C)c4)ccn3)C(=O)[C@H]3CC[C@H](OC(=O)NC(C)C)CC3)CC2)cc1C [Compound 2.17, trans-4-((4-(1-Isopropyl-1H-pyrazol-4-yl)pyridin-2-yl)(((trans)-4-(4-methoxy-3-methylphenyl)cyclohexyl)methyl)carbamoyl) cyclohexyl isopropylcarbamate]
≤ 50 nM	COc1ccc([C@H]2CC[C@H](CN(c3cc(-c4cnn(C(C)C)c4)ccn3)C(=O)[C@H]3CC[C@H](OC(=O)N4CC(OC)C4)CC3)CC2)cc1C [Compound 2.18, trans-4-((4-(1-Isopropyl-1H-pyrazol-4-yl)pyridin-2-yl) ((trans-4-(4-methoxy-3-methylphenyl)cyclohexyl)methyl)carbamoyl) cyclohexyl 3-methoxyazetidine-1-carboxylate]
≤ 50 nM	COc1ccc([C@H]2CC[C@H](CN(c3cc(-c4cnn(C(C)C)c4)ccn3)C(=O)[C@H]3CC[C@H](OC(=O)NCCCO)CC3)CC2)cc1C [Compound 2.19, trans-4-((4-(1-Isopropyl-1H-pyrazol-4-yl)pyridin-2-yl) ((trans-4-(4-methoxy-3-methylphenyl)cyclohexyl)methyl)carbamoyl) cyclohexyl(3-hydroxypropyl)carbamate]
≤ 50 nM	COc1ccc([C@H]2CC[C@H](CN(c3cc(-c4cnn(C(C)C)c4)ccn3)C(=O)[C@H]3CC[C@H](OC(=O)NCC(C)(C)CO)CC3)CC2)cc1C [Compound 2.20, trans-4-((4-(1-Isopropyl-1H-pyrazol-4-yl)pyridin-2-yl) ((trans-4-(4-methoxy-3-methylphenyl)cyclohexyl)methyl)carbamoyl) cyclohexyl(3-hydroxy-2,2-dimethylpropyl)carbamate]
≤ 50 nM	COc1ccc([C@H]2CC[C@H](CN(c3cc(-c4cnn(C(C)C)c4)ccn3)C(=O)[C@H]3CC[C@H](OC(=O)NCCC(C)(C)O)CC3)CC2)cc1C [Compound 2.21, trans-4-((4-(1-Isopropyl-1H-pyrazol-4-yl)pyridin-2-yl) ((trans-4-(4-methoxy-3-methylphenyl)cyclohexyl)methyl)carbamoyl) cyclohexyl(3-hydroxy-3-methylbutyl)carbamate]
≤ 50 nM	CCn1cc(-c2ccnc(N(C[C@H]3CC[C@H](c4ccc(OC)c(C)c4)CC3)C(=O)[C@H]3CC[C@H](OC(=O)N4CC(O)C4)CC3)c2)cn1 [Compound 2.22, trans-4-((4-(1-Ethyl-1H-pyrazol-4-yl)pyridin-2-yl) ((trans-4-(4-methoxy-3-methylphenyl)cyclohexyl)methyl)carbamoyl) cyclohexyl3-hydroxyazetidine-1-carboxylate]
